Test results reported in PubChem BioAssay (NCI).
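Dose response: 5 concentrations. Exposure: 48 h. Format: 96-well plates. Endpoint: linear interpolation; highest concentration if not reached. GI50: concentration for 50% inhibition of growth. The concentration for full growth arrest is given as TGI.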

What was measured:
Assay in all cases: DTP human tumour cell line panel, 48 h
A498 renal = test system: A498 renal
HOP-62 NSCLC = test system: HOP-62 NSCLC
MALME-3M melanoma = test system: MALME-3M melanoma
MOLT-4 leukemia = test system: MOLT-4 leukemia
OVCAR-3 ovarian = test system: OVCAR-3 ovarian
PC-3 prostate = test system: PC-3 prostate
RXF 393 renal = test system: RXF 393 renal
SN12C renal = test system: SN12C renal
ACHN renal = test system: ACHN renal
CAKI-1 renal = test system: CAKI-1 renal

Structure (SMILES)	GI50 (A498 renal)	TGI (A498 renal)	GI50 (HOP-62 NSCLC)	TGI (HOP-62 NSCLC)	GI50 (MALME-3M melanoma)	TGI (MALME-3M melanoma)	GI50 (MOLT-4 leukemia)	TGI (MOLT-4 leukemia)	GI50 (OVCAR-3 ovarian)	TGI (OVCAR-3 ovarian)	GI50 (PC-3 prostate)	TGI (PC-3 prostate)	GI50 (RXF 393 renal)	TGI (RXF 393 renal)	GI50 (SN12C renal)	TGI (SN12C renal)	GI50 (ACHN renal)	TGI (ACHN renal)	GI50 (CAKI-1 renal)	TGI (CAKI-1 renal)
CCCCOC(=O)c1ccc(NC(=O)CCl)cc1	14.1 µM	28.6 µM	1.99 µM	3.96 µM	1.76 µM	3.68 µM	1.82 µM	6.21 µM	1.7 µM	3.3 µM	3.24 µM	12.4 µM	1.55 µM	3.19 µM	1.56 µM	3.36 µM	–	–	–	–
COc1ccc(C2=Nc3c/c(=C\c4c(O)[nH]c5ccc(Cl)cc45)ccc3=N2)cc1	1.33 µM	7.78 µM	1.82 µM	4.02 µM	–	–	1.99 µM	6.08 µM	1.53 µM	2.91 µM	1.56 µM	4 µM	1.58 µM	3.15 µM	–	–	1.83 µM	3.47 µM	–	–
COc1ccc2c(c1)CCc1[nH]nc(-c3cc(OC)c(OC)c(OC)c3)c1-2	< 0.01 µM	< 0.01 µM	< 0.01 µM	10.8 µM	< 0.01 µM	33.9 µM	< 0.01 µM	> 100 µM	< 0.01 µM	14.7 µM	< 0.01 µM	17.8 µM	–	–	< 0.01 µM	22 µM	< 0.01 µM	21.7 µM	< 0.01 µM	24.8 µM
CC1=C(C(=O)Nc2ccc([N+](=O)[O-])cc2)C(c2ccccc2O)C(C(=O)Nc2ccc([N+](=O)[O-])cc2)=C(C)N1	–	66.4 µM	–	31.9 µM	–	49.4 µM	–	52.8 µM	–	51.4 µM	–	–	–	45.9 µM	–	55.5 µM	–	58 µM	–	62.1 µM
O=C(O)c1ccc([S-])cc1.[Au+].c1ccc(CN2[CH-]N(Cc3ccccc3)C(c3ccccc3)=C2c2ccccc2)cc1	0.246 µM	0.954 µM	0.416 µM	1.73 µM	0.249 µM	0.797 µM	–	–	0.373 µM	1.28 µM	0.308 µM	1.44 µM	0.305 µM	1.13 µM	0.305 µM	1.3 µM	0.332 µM	1.28 µM	–	–
Nc1nc(NC2C=C(CO)C(O)C2O)c([N+](=O)[O-])c(=O)[nH]1 (stereo unspecified)	–	> 100 µM	–	> 100 µM	–	> 100 µM	–	> 100 µM	–	> 100 µM	–	–	–	> 100 µM	–	> 100 µM	–	> 100 µM	–	> 100 µM
NC(CC(=O)Nc1ccc(Cl)cc1)=Nc1ccccc1	–	> 100 µM	–	> 100 µM	–	> 100 µM	–	> 100 µM	–	> 100 µM	–	–	–	> 100 µM	–	> 100 µM	–	> 100 µM	–	> 100 µM
